By Kd is commonly meant the concentration at which binding is half-saturated. For orientation: koff means the first-order rate constant of dissociation. As a reminder, the kon is a measure of how fast the partners come together.

Here are results for 12 compounds from publication PMC12140054, “Small glycomimetic antagonists of the cytomegalovirus glycoprotein UL141 prevent binding to TRAIL death receptor” (The Journal of Biological Chemistry, 2025).

In series [1] the test system is human foreskin fibroblasts HFF-BJ (ATCC CRL-2522 cells). The experiment in a line: MTT cytotoxicity / cell viability assay. The format is cell-based. As to conditions: 0.1 to 50 μM, 72 h. An excerpt: Cell viability as visualized by fold change of formazan-positive cells normalized to the untreated control and DMSO. Viability reduced below 40% represents the cytotoxic zone, below the dotted line in each plot. The number of biological replicates is indicated.
Human foreskin fibroblasts (HFF), a type of primary fibroblast derived from neonatal foreskin tissue, were chosen for this bioassay due to their distinct advantages in studies involving HCMV. For instance, the HHF cells provide a relevant and effective platform due to their unique susceptibility to HCMV infection, ability to mimic human immune responses, and relevance to clinical scenarios. […] HFF cells were incubated with each compound at concentrations ranging from 0.1 to 50 μM and any possible cytotoxic effect was monitored for 72 h. Tested compounds were dissolved in dimethyl sulfoxide (DMSO). […] The cytotoxic effect (CTE) is represented here as the concentration that causes a reduction of more than 40% in the number of viable cells.
Cells were seeded in a 96-well plate at a density of 1 × 10^4 cells per well for the measurement of cytotoxicity of the compounds (without UVA irradiation). […] Cells after treatment were incubated for […]. Untreated cells were considered negative control, and DMSO-treated cells (at appropriate concentration) were considered vehicle control. The classical MTT assay (3-(4,5-dimethyl thiazolyl-2)-2,5-diphenyltetrazolium bromide) ([68]) was used to measure cellular metabolic activity as an indicator of cell viability, proliferation, and cytotoxicity. Briefly, 0.5 mg/ml MTT solution was dispensed in each well of the 96-well plate and incubated for 4 h. Afterward, the MTT solution was removed and 200 μl of 100% DMSO was added to each well and the plate was placed on a microplate shaker for 5 min to dissolve the formazan granules. The absorbance was measured at 550 nm using a spectrophotometer. DMSO and MTT were purchased from Thermo Fisher Scientific. The darker the solution, the greater the number of viable, metabolically active cells. All experimental compounds were measured using at least 2 to 3 replicates for each and the averaged values from three independent experiments (n = 3) are presented. Cell viability was visualized by fold change of formazan-positive cells normalized to the untreated control and DMSO. Viability reduced below 40% represents the cytotoxic zone. All evaluations were performed using GraphPad Prism 9.5.0 (GraphPad Software, LLC), if other software was not explicitly mentioned.

Series [2] addresses T1, HCMV UL141 (Human cytomegalovirus, UniProt Q6RJQ3).
T1 construct: we expressed and purified the full-length recombinant UL141 (amino acids 30–300); made in house
The series is described as follows: biochemical. The format is binding. To be noted: for Rmax / koff / kon: UL141 immobilized, substance as analyte. As to the method: (§1) To prepare HCMV UL141 for binding studies, biotinylation was performed using the BiotinTag Micro Biotinylation Kit (Sigma-Aldrich). Purified UL141 protein (50 μg in 50 μl) was mixed with 50 μl of BiotinTag reaction buffer provided in the kit. Sulfo-NHS-Biotin reagent was freshly prepared by dissolving the vial contents in 1 ml of sterile water. A calculated volume of the biotin reagent was added to achieve a 20:1 M excess of biotin to protein. The reaction mixture was incubated for 30 min at room temperature with gentle mixing to ensure efficient labeling. Following incubation, unreacted biotin was removed using the desalting column included in the kit. The biotinylated UL141 protein was eluted in 50 mM Hepes, pH 7.5, 150 mM NaCl. Biotin incorporation was verified using a colorimetric biotin quantification assay (e.g., HABA assay). The biotinylated protein was then quantified spectrophotometrically using a NanoDrop instrument and concentrated to the desired level for Biacore or ELISA binding studies. The biotinylated protein was stored at 4 °C for short-term use or −80 °C for long-term storage to maintain stability.
(§2) The sensor surface of an SA chip (Cytiva) was preconditioned with HBS-EP buffer (10 mM Hepes, 150 mM NaCl, 3 mM EDTA, 0.005% Tween-20) to stabilize the baseline and remove any loosely bound streptavidin. Before use, the buffer was filtered through a 0.2 μm polystyrene filter and degassed under vacuum for 10 min to eliminate air bubbles. Biotinylated HCMV UL141 was immobilized on the SA chip, maintaining biotinylation at 0.5 to 1.5 mol per mole of protein. Excess biotin was removed via gel filtration. UL141 was injected at 30 μl/min, achieving maximum immobilization (4000–6000 RU), followed by washing with running buffer. Residual unbound proteins were optionally removed with a 2 M NaCl pulse. To ensure optimal SPR signal detection, which depends on the analyte mass bound to the ligand, relatively high amounts of ligand were immobilized on the sensor chip to achieve a significant response signal upon binding of the small compound. […] Regeneration of the chip surface, when necessary, was performed using 5 mM NaOH. Control injections of zero concentrations and duplicate injections of selected concentrations were included to validate surface regeneration. […]

For series [3], the target named is TRAIL-R2-Fc (Homo sapiens) (UniProt O14763). The experiment in a line: SPR. To be noted: cited from earlier work.
The next series concerns the target UL141. As to conditions: cited from earlier work; for Kd: UL141 (ectodomain) in solution.
The target in another series is TRAIL-R2 (Homo sapiens) (UniProt O14763). The experiment in a line: SPR. To be noted: cited from earlier work.
Series [4] concerns the target T2, HCMV UL141 (Human cytomegalovirus, UniProt Q6RJQ3).
T2 construct: we expressed and purified the full-length recombinant UL141 (amino acids 30–300); made in house
T2 sequence (Q6RJQ3 whole entry, looked up): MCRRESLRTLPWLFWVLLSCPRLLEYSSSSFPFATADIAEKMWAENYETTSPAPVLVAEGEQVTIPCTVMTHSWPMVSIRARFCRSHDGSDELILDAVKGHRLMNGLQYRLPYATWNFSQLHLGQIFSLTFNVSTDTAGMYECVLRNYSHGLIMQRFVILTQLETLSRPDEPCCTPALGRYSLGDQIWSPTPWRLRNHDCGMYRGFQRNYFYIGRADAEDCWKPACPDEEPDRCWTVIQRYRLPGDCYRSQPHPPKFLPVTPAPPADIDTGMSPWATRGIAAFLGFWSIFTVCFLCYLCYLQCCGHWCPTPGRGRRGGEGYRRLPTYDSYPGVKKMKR
The experiment in a line: biochemical. The format is binding. As to the method:
as §1, §2

A further series concerns A549 cells. The series is described as follows: Cytotoxicity on A549 cells (data not shown). Type of series: cell-based.
The next series relates to VERO-E6 cells. The experiment in a line: Cytotoxicity on VERO-E6 cells (data not shown). Type of series: cell-based.
Setting [5] is: UL141 immobilized (ligand), substance in solution (analyte), 1:1 Langmuir model, 25 °C.
[6] abbreviates: 1:1 Langmuir model, listed as cmp 20.
[7] abbreviates: TRAIL-R2-Fc immobilized, ref ([19]).
[8] abbreviates: TRAIL-R2-Fc immobilized, UL141 in solution, ref ([19]).
[9] abbreviates: UL141-Fc immobilized, TRAIL-R2 in solution, ref ([17]).
The mark [10] stands for this setting: 1:1 Langmuir model, listed as cmp 15.

Like-named read-outs stand apart in the source and are kept apart here.

For the compound `CC(O)C1C(O)C(O)CN1Cc1ccc(I)cc1` (stereo not shown) [Compound 17], the “cytotoxicity (in words)” value in series [1] is recorded as “no cytotoxicity was detected”. This compound also yielded a dissociation constant Kd on HCMV UL141 [2] (setting [5]) of 20.3 µM. At HCMV UL141 [2], this compound had an Rmax of 20. For the same compound, the koff on HCMV UL141 [2] (1:1 Langmuir model) was 0.0508 s⁻¹; on HCMV UL141 [2] (1:1 Langmuir model, listed as cmp 17) it was “(0.51 ± 0.001) × 10^−1 s^−1”. For the same compound, on HCMV UL141 [2] (1:1 Langmuir model), the kon was found to be 2500 M⁻¹ s⁻¹.
Consider `CC1C(O)C(O)CN1Cc1ccc(I)cc1` (stereo not shown) [Compound 20], for which, in series [1], the “cytotoxicity (in words)” value was “no cytotoxicity was detected”. The Kd on HCMV UL141 [2] (setting [5]) was 29.1 µM; at HCMV UL141 [2] (binding to UL141, SPR) it was 29 µM. This compound returned an Rmax at HCMV UL141 [2] of 21. In addition, the koff at HCMV UL141 [2] (1:1 Langmuir model) is 0.0879 s⁻¹; at HCMV UL141 [2] (setting [6]), “(0.88 ± 0.015) × 10^−1 s^−1”. Besides, the kon at HCMV UL141 [2] (1:1 Langmuir model) was 3020 M⁻¹ s⁻¹; on HCMV UL141 [2] (setting [6]), “(0.30 ± 0.007) × 10^4 M^−1s^−1”.
As for UL141 ECD (from UniProt Q6RJQ3), the Kd in series [3] was 0.00596 µM.
Turning to “TRAIL-R2-Fc: TRAIL-R2 recombinantly prepared as an Fc-fusion protein”, the Kd at UL141 (setting [7]) was 0.00596 µM. In the series with UL141 (setting [8]), the koff was 7.21e-05 s⁻¹ and the kon is 12100 M⁻¹ s⁻¹.
Turning to UL141-Fc (from UniProt Q6RJQ3), in the series with TRAIL-R2 (Homo sapiens), the Kd is 0.0214 µM.
For “TRAIL-R2: recombinant human TRAIL death receptor 2 ectodomain (amino acids 58–184), positive control in SPR”, the Kd at UL141 (setting [7]) is 0.00596 µM. For the same compound, in the series with UL141 (setting [9]), the koff is 0.00564 s⁻¹ and the kon is 264000 M⁻¹ s⁻¹. Also, the Rmax in the series with HCMV UL141 [4] (UL141 immobilized, substance as analyte) worked out at 872. The Kd in the series with HCMV UL141 [4] (full-length UL141 and TRAIL-R2, SPR, read-out: affinity (KD)) worked out at 0.00599 µM.
Take `C[C@H](O)[C@H]1[C@@H](O)[C@@H](O)CN1Cc1ccc(I)cc1` [Compound 14, (2S,3R,4S)-2-((S)-1-hydroxyethyl)-1-(4-iodobenzyl)pyrrolidine-3,4-diol]: the “cytotoxicity (in words)” value in series [1] was “no cytotoxicity was detected”. Besides, the Kd on HCMV UL141 [2] (setting [5]) was found to be 24 µM; at HCMV UL141 [2] (binding to UL141, SPR) it was 24 µM. At HCMV UL141 [2], this compound came in with an Rmax of 24. This compound also came in with a koff on HCMV UL141 [2] (1:1 Langmuir model) of 0.153 s⁻¹. The kon at HCMV UL141 [2] (1:1 Langmuir model) is 6370 M⁻¹ s⁻¹; on HCMV UL141 [2] (1:1 Langmuir model, listed as cmp 14), “(0.63 ± 0.002) × 10^4 M^−1s^−1”.
`CCCCCCCCCCCCN1C[C@H](O)[C@H](O)[C@@H]1CO` [Compound 9]: the “cytotoxicity (in words)” value in series [1] is given as “unfavorable level of cytotoxicity”. The “concentration at which cytotoxicity with apoptotic properties begins” value (“concentration at which cytotoxicity” for short) in the series on A549 cells and in the series on VERO-E6 cells was at least 5 µg/mL throughout.
`CCCCCCCCCCCCCCO[C@@H]1O[C@H](CO)[C@@H](O)[C@H](O)[C@H]1O` [Compound 1]: the “concentration at which cytotoxicity” value in the series with A549 cells and with VERO-E6 cells was at least 5 µg/mL throughout.
Take `CCCCCCCCCCCCCCO[C@@H]1O[C@H](CO)[C@H](O)[C@H](O)[C@H]1O` [Compound 3]: the “concentration at which cytotoxicity” value in the series with A549 cells and in the series with VERO-E6 cells was at least 5 µg/mL each time.
For `CCCCCCCCCCCCCCO[C@H]1O[C@H](CO)[C@@H](O)[C@H](O)[C@@H]1O` [Compound 5], the “cytotoxicity (in words)” value in series [1] is “unfavorable level of cytotoxicity”. Further, the “concentration at which cytotoxicity” value in the series on A549 cells and in the series on VERO-E6 cells was at least 5 µg/mL each time.
Regarding `CC(O)C1C(O)C(O)CN1Cc1ccccc1` (stereo not shown) [Compound 15], in series [1], the “cytotoxicity (in words)” value is listed as “no cytotoxicity was detected”. In addition, the Kd came out at 200 µM at HCMV UL141 [2] (setting [5]) and 199 µM on HCMV UL141 [2] (binding to UL141, SPR). On HCMV UL141 [2], this compound had an Rmax of 27. Besides, the koff is 0.117 s⁻¹ at HCMV UL141 [2] (1:1 Langmuir model) and “(1.17 ± 0.004) × 10^−1 s^−1” at HCMV UL141 [2] (setting [10]). Besides, the values for the kon on HCMV UL141 [2] (1:1 Langmuir model) and on HCMV UL141 [2] (setting [10]) were 586 M⁻¹ s⁻¹ and “(0.06 ± 0.002) × 10^4 M^−1s^−1”, respectively.
